Drawing on patent US20240317739A1, “NOVEL UREA DERIVATIVE COMPOUND AS RON INHIBITOR” (LG CHEM, LTD., priority 2021, published 2024), this text covers IC50 for 16 compounds.

As a reminder, the IC50 is the concentration needed to halve the response being measured. A higher IC50 goes with weaker potency in that assay.

Experiment [1] has as its target cMET (Homo sapiens, UniProt P08581). Description: Evaluation of inhibitory activity against MET (TR-FRET). Format: biochemical. Conditions: TR-FRET kinase assay, cMET protein. How it is done: In addition, in order to measure the enzyme activity inhibition for cMET, the evaluation was performed in the same manner as the enzyme activity inhibition measurement experiment for the RON.
Specifically, the compound was prepared to a concentration of 1 mM with 100% DMSO and was diluted 10 times in a stepwise manner through 3-fold dilution. 2 ul of the compound diluted in a stepwise manner was added to a 96-well-plate containing 48 ul of a 1× kinase reaction buffer (50 mM HEPES (pH 7.4), 0.05% BSA, 0.005% Tween-20, 1 mM DTT, 0.5 mM MnCl2, 20 mM MgCl2).
The cMET protein was diluted to a concentration of 263 nM with a cMET storage buffer (50 mM Tris-HCl (pH 7.5), 150 mM NaCl, 0.05% Brij35, 1 mM DTT, 10% Glycerol), and then diluted again to a concentration of 2 nM with a 1× kinase reaction buffer. As a substrate cocktail, a MET-specific substrate mixture (5 uM TK peptide, […]) at a concentration 2 times the final reaction concentration.
(§1) Thereafter, a 384-well-plate was prepared, and 2.5 μl of each of the diluted compounds of Examples was added to a corresponding well of experimental group wells, and 2.5 μl of a 4% DMSO solution was dispensed into high control wells and low control wells.
(§2) Thereafter, 2.5 μL of 2 nM cMET was dispensed into the high control wells and the experimental group wells, and 2.5 μL of a 1× kinase reaction buffer was added to the low control wells, and the RON and the reaction buffer were centrifuged at room temperature for 40 seconds at 1000 RPM, and then incubated at room temperature for 20 to 30 minutes. Then, 5 uL of a substrate cocktail (2×) was dispensed into all wells, centrifuged at room temperature for 40 seconds at 1000 RPM, and then incubated at room temperature for 60 minutes. Thereafter, 5 uL of 90 mM EDTA was added to all wells to terminate the reaction, and then incubated again at room temperature for 5 minutes. Thereafter, 5 uL of a 4× phosphotyrosine antibody (Perkin Elmer) containing europium was added to all wells, and then incubated at room temperature for 60 minutes. After the incubation, the 384-well-plate was read with a Vison plate reader. At this time, the excitation wavelength was 340 nm, and the emission wavelength was 620 nm and 665 nm. The 1050 value of the compound of each Example was derived using the GraphPd Prism7 program.
Background: In TR-FRET formats the signal depends on donor and acceptor labels being close together.

Experiment [2] has as its target RON (Homo sapiens, UniProt Q04912). Description: Evaluation of inhibitory activity against RON (TR-FRET). Format: biochemical. Conditions: TR-FRET kinase assay, RON protein. How it is done:
In order to measure the inhibitory activity of each of the compounds of Examples against RON, the IC50 of each of the compounds was measured using a Time-Resolved Fluorescence Energy Transfer Chemistry (TR-FRET).
Specifically, the compound was prepared to a concentration of 1 mM with 100% DMSO and was diluted 10 times in a stepwise manner through 3-fold dilution. 2 ul of the compound diluted in a stepwise manner was added to a 96-well-plate containing 48 ul of a 1×kinase reaction buffer (50 mM HEPES (pH 7.4), 0.01% Tween-20, 5 mM DTT, 0.5 mM Na3VO4, 2 mM EGTA, 10 mM MgCl2).
The RON protein was diluted to a concentration of 49.3 nM with an RON storage buffer (50 mM Tris-HCl (pH 7.5), 150 mM NaCl, 0.5 mM EDTA, 0.02% Triton X-100), and then diluted again to a concentration of 0.4 nM with a 1×kinase reaction buffer. As a substrate cocktail, a RON-specific substrate mixture (40 uM ULight-labeled Poly GT, 100 nM ATP) at a concentration 2 times the final reaction concentration.
as §1
as §2, with “of 0.4” for “of 2”, “nM RON” for “nM cMET”, “of 30” for “of 90”, “The IC50” for “The 1050”

Sequence of cMET (P08581 25-1390): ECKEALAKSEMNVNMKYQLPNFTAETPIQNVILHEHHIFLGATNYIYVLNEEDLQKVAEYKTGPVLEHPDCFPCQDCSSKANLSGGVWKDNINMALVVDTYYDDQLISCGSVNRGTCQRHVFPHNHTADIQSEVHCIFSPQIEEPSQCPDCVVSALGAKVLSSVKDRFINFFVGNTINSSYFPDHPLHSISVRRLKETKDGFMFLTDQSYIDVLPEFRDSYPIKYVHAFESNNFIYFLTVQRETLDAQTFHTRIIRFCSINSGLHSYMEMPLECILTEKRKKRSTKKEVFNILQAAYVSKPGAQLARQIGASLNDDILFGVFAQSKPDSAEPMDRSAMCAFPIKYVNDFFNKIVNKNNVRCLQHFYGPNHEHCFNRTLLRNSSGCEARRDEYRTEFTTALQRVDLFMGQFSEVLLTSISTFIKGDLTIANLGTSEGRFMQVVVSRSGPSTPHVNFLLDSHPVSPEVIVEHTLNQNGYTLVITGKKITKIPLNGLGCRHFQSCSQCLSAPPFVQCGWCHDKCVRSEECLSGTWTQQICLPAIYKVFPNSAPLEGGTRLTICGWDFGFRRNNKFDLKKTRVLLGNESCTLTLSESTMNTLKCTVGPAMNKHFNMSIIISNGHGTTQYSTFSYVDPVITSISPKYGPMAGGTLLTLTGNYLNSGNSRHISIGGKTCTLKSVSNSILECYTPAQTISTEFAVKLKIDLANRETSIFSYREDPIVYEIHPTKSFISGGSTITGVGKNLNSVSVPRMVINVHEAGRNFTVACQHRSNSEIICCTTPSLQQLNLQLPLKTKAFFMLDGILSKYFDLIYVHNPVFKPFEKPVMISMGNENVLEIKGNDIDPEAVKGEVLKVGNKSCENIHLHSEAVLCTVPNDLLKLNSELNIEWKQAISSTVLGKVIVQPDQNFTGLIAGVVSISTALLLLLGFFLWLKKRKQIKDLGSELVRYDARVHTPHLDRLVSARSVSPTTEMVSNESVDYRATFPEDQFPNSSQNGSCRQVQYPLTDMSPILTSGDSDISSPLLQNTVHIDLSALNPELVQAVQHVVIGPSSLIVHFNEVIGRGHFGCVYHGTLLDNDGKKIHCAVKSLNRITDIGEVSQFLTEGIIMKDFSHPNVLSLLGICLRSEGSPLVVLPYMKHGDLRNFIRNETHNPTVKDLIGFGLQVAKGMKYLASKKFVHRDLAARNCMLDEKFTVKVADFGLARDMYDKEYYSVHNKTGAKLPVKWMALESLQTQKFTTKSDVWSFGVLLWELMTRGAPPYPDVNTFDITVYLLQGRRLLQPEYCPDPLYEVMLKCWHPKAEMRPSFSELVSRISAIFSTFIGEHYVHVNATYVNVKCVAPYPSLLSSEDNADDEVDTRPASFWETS
Sequence of RON (Q04912 25-1400, species assumed): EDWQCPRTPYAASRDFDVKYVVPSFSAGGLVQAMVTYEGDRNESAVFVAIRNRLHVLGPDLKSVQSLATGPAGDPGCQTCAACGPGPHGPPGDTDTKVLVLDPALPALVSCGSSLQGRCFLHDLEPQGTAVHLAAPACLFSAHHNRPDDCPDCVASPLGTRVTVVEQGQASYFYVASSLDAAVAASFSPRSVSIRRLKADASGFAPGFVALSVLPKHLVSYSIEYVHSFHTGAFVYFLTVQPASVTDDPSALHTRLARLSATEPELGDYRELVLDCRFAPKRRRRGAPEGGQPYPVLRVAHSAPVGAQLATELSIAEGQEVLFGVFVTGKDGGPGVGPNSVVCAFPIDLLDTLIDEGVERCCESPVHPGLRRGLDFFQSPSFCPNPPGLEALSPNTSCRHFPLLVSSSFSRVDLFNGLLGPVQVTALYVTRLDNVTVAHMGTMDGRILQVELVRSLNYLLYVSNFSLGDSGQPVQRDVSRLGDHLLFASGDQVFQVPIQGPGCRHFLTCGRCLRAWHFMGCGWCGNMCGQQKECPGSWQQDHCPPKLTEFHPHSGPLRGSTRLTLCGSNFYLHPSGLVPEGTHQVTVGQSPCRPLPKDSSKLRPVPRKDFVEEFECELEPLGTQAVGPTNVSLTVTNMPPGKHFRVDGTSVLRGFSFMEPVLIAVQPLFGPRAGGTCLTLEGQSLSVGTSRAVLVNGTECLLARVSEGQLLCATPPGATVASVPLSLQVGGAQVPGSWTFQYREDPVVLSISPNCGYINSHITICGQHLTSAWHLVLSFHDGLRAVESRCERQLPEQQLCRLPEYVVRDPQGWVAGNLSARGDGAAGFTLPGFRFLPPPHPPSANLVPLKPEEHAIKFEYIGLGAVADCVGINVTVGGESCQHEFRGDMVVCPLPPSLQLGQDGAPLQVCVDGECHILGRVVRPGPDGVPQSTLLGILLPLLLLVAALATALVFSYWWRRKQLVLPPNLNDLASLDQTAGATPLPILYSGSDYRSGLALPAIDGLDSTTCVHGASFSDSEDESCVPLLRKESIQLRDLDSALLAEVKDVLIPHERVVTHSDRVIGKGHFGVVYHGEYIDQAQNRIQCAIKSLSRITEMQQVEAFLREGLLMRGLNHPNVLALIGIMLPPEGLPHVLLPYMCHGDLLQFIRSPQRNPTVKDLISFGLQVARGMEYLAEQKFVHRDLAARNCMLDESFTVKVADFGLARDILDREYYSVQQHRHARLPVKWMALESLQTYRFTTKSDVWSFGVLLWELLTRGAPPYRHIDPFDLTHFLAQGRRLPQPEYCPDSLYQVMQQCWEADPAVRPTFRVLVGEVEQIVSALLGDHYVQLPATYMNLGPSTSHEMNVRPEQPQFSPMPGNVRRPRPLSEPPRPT

Consider `CCc1c(C(=O)Nc2ccc(Oc3ccnc4[nH]c(=O)[nH]c34)c(F)c2)cnn1-c1cncnc1` [Example 1, 5-ethyl-N-(3-fluoro-4-((2-oxo-2,3-dihydro-1H-imidazo[4,5-b]pyridine-7-yl)oxy)phenyl)-1-(pyrimidine-5-yl)-1H-pyrazole-4-carboxamide], for which the IC50 in experiment [1] and in experiment [2] was > 5000 nM in each case.
For the compound `CCc1c(C(=O)Nc2ccc(Oc3ccnc4[nH]c(=O)n(C(C)C)c34)c(F)c2)cnn1-c1cncnc1` [Example 2, 5-ethyl-N-(3-fluoro-4-((1-isopropyl-2-oxo-2,3-dihydro-1H-imidazo[4,5-b]pyridine-7-yl)oxy)phenyl)-1-(pyrimidine-5-yl)-1H-pyrazole-4-carboxamide], the IC50 in experiment [1] was > 5000 nM; in experiment [2] it was < 50 nM.
With `CC(C)n1c(=O)[nH]c2nccc(Oc3ccc(NC(=O)c4cnn(-c5ccccn5)c4C(F)(F)F)cc3F)c21` [Example 3, N-(3-fluoro-4-((1-isopropyl-2-oxo-2,3-dihydro-1H-imidazo[4,5-b]pyridine-7-yl)oxy)phenyl)-1-(pyridine-2-yl)-5-(trifluoromethyl)-1H-pyrazole-4-carboxamide], the IC50 is > 5000 nM in experiment [1] and < 50 nM in experiment [2].
Regarding `CC(C)n1c(=O)[nH]c2nccc(Oc3ccc(NC(=O)c4cnn(-c5cncnc5)c4C(F)(F)F)cc3F)c21` [Example 4, N-(3-fluoro-4-((1-isopropyl-2-oxo-2,3-dihydro-1H-imidazo[4,5-b]pyridine-7-yl)oxy)phenyl)-1-(pyrimidine-5-yl)-5-(trifluoromethyl)-1H-pyrazole-4-carboxamide], the IC50 is > 5000 nM in experiment [1] and < 50 nM in experiment [2].
Consider `Cc1c(C(=O)Nc2ccc(Oc3ccnc4[nH]c(=O)n(C(C)C)c34)c(F)c2)cnn1-c1cncnc1` [Example 5, N-(3-fluoro-4-((1-isopropyl-2-oxo-2,3-dihydro-1H-imidazo[4,5-b]pyridine-7-yl)oxy)phenyl)-5-methyl-1-(pyrimidine-5-yl)-1H-pyrazole-4-carboxamide], for which the 50% inhibitory concentration (IC50) in experiment [1] is 500 to 5000 nM; in experiment [2], 50 to 500 nM.
The like results for `CCc1c(C(=O)Nc2ccc(Oc3ccnc4[nH]c(=O)n(C5CCCC5)c34)c(F)c2)cnn1-c1cncnc1` [Example 6, N-(4-((1-cyclopentyl-2-oxo-2,3-dihydro-1H-imidazo[4,5-b]pyridine-7-yl)oxy)-3-fluorophenyl)-5-ethyl-1-(pyrimidine-5-yl)-1H-pyrazole-4-carboxamide] were, in that order, > 5000 nM and 50 to 500 nM.
With `CC(C)n1c(=O)[nH]c2nccc(Oc3ccc(NC(=O)c4cnn(-c5ncccc5F)c4C(F)(F)F)cc3F)c21` [Example 7, N-(3-fluoro-4-((1-isopropyl-2-oxo-2,3-dihydro-1H-imidazo[4,5-b]pyridine-7-yl)oxy)phenyl)-1-(3-fluoropyridine-2-yl)-5-(trifluoromethyl)-1H-pyrazole-4-carboxamide], the IC50 is 500 to 5000 nM in experiment [1] and < 50 nM in experiment [2].
For the compound `Cc1cccnc1-n1ncc(C(=O)Nc2ccc(Oc3ccnc4[nH]c(=O)n(C(C)C)c34)c(F)c2)c1C(F)(F)F` [Example 8, N-(3-fluoro-4-((1-isopropyl-2-oxo-2,3-dihydro-1H-imidazo[4,5-b]pyridine-7-yl)oxy)phenyl)-1-(3-methylpyridine-2-yl)-5-(trifluoromethyl)-1H-pyrazole-4-carboxamide], the values for the 50% inhibitory concentration (IC50) in experiment [1] and in experiment [2] were 500 to 5000 nM and < 50 nM, respectively.
For the compound `Cc1ccc(-n2ncc(C(=O)Nc3ccc(Oc4ccnc5[nH]c(=O)n(C(C)C)c45)c(F)c3)c2C(F)(F)F)nc1` [Example 9, N-(3-fluoro-4-((1-isopropyl-2-oxo-2,3-dihydro-1H-imidazo[4,5-b]pyridine-7-yl)oxy)phenyl)-1-(5-methylpyridine-2-yl)-5-(trifluoromethyl)-1H-pyrazole-4-carboxamide], the IC50 in experiment [1] is > 5000 nM; in experiment [2], 50 to 500 nM.
For `CC(C)n1c(=O)[nH]c2nccc(Oc3ccc(NC(=O)c4cnn(-c5ncccc5Cl)c4C(F)(F)F)cc3F)c21` [Example 10, 1-(3-chloropyridine-2-yl)-N-(3-fluoro-4-((1-isopropyl-2-oxo-2,3-dihydro-1H-imidazo[4,5-b]pyridine-7-yl)oxy)phenyl)-5-(trifluoromethyl)-1H-pyrazole-4-carboxamide], the IC50 was 500 to 5000 nM in experiment [1] and < 50 nM in experiment [2].
As to `CC(C)n1c(=O)[nH]c2nccc(Oc3ccc(NC(=O)c4cnn(-c5ccc(Cl)cn5)c4C(F)(F)F)cc3F)c21` [Example 11, 1-(5-chloropyridine-2-yl)-N-(3-fluoro-4-((1-isopropyl-2-oxo-2,3-dihydro-1H-imidazo[4,5-b]pyridine-7-yl)oxy)phenyl)-5-(trifluoromethyl)-1H-pyrazole-4-carboxamide], the IC50 in experiment [1] was > 5000 nM; in experiment [2], 50 to 500 nM.
For the compound `CC(C)n1c(=O)[nH]c2nccc(Oc3ccc(NC(=O)c4cnn(-c5ncccc5C(F)(F)F)c4C(F)(F)F)cc3F)c21` [Example 12, N-(3-fluoro-4-((1-isopropyl-2-oxo-2,3-dihydro-1H-imidazo[4,5-b]pyridine-7-yl)oxy)phenyl)-5-(trifluoromethyl)-1-(3-(trifluoromethyl)pyridine-2-yl)-1H-pyrazole-4-carboxamide], the IC50 in experiment [1] is 500 to 5000 nM; in experiment [2], < 50 nM.
Consider `CC(C)n1c(=O)[nH]c2nccc(Oc3ccc(NC(=O)c4cnn(-c5ccc(C(F)(F)F)cn5)c4C(F)(F)F)cc3F)c21` [Example 13, N-(3-fluoro-4-((1-isopropyl-2-oxo-2,3-dihydro-1H-imidazo[4,5-b]pyridine-7-yl)oxy)phenyl)-5-(trifluoromethyl)-1-(5-(trifluoromethyl)pyridine-2-yl)-1H-pyrazole-4-carboxamide], for which the IC50 in experiment [1] and in experiment [2] was > 5000 nM in each case.
Consider `Cc1ccnc(-n2ncc(C(=O)Nc3ccc(Oc4ccnc5[nH]c(=O)n(C(C)C)c45)c(F)c3)c2C(F)(F)F)c1` [Example 14, N-(3-fluoro-4-((1-isopropyl-2-oxo-2,3-dihydro-1H-imidazo[4,5-b]pyridine-7-yl)oxy)phenyl)-1-(4-methylpyridine-2-yl)-5-(trifluoromethyl)-1H-pyrazole-4-carboxamide], for which the values for the IC50 in experiment [1] and in experiment [2] were > 5000 nM and < 50 nM, respectively.
As to `CC(C)n1c(=O)[nH]c2nccc(Oc3ccc(NC(=O)c4cnn(-c5cc(Cl)ccn5)c4C(F)(F)F)cc3F)c21` [Example 15, 1-(4-chloropyridine-2-yl)-N-(3-fluoro-4-((1-isopropyl-2-oxo-2,3-dihydro-1H-imidazo[4,5-b]pyridine-7-yl)oxy)phenyl)-5-(trifluoromethyl)-1H-pyrazole-4-carboxamide], the concentration for half-maximal inhibition (IC50) in experiment [1] is > 5000 nM; in experiment [2], < 50 nM.
The like results for `CC(C)n1c(=O)[nH]c2nccc(Oc3ccc(NC(=O)c4cnn(-c5cc(Br)ccn5)c4C(F)(F)F)cc3F)c21` [Example 16, 1-(4-bromopyridine-2-yl)-N-(3-fluoro-4-((1-isopropyl-2-oxo-2,3-dihydro-1H-imidazo[4,5-b]pyridine-7-yl)oxy)phenyl)-5-(trifluoromethyl)-1H-pyrazole-4-carboxamide] were, in that order, > 5000 nM and < 50 nM.
